From patent publication US20070155806A1 (The University of Tokyo, priority 2005, published 2007)

Assays:
Format in all cases: biochemical
luciferase (firefly) [1] = molecular target: T1, luciferase (firefly) (Photinus pyralis, UniProt P08659); assay: Luminescence characteristics with firefly luciferase (Example 3); conditions: for relative intensity: calculated on the basis of the intensity obtained for aminoluciferin; for λmax(nm): luminescence peak, HEPES pH 7.7, ATP, Mg, CoA; for λmax(nm) / initial intensity: 12 μmol/L substrate, 20 μg/mL luciferase; for initial intensity: luminescence, HEPES pH 7.7; for peak luminescence wavelength shift to longer wavelength side compared with luciferin: versus luciferin
T1 sequence (P08659 whole entry, species assumed): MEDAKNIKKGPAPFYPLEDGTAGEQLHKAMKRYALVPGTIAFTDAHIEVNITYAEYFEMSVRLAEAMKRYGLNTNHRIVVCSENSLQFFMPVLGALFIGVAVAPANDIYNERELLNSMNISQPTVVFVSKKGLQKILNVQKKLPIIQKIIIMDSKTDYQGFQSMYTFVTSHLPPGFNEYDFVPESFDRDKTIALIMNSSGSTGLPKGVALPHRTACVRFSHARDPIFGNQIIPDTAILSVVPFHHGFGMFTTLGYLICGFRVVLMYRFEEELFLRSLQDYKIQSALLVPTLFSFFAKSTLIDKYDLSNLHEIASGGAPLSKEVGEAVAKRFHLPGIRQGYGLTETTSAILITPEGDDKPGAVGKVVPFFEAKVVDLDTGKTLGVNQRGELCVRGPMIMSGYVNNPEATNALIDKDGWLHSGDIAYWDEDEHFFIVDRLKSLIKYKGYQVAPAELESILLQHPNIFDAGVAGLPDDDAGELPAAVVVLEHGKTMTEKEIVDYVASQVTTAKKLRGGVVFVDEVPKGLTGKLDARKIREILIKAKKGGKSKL
Procedure: The measurement was performed by using Fluorescence Spectrophotometer F-4500 (Hitachi).

luciferase (firefly) [2] = molecular target: T1, luciferase (firefly); assay: Measurement of luminescence after reaction with luciferase (Example 5, FIG. 2); conditions: 12 μmol/L substrate, 40 μg/mL luciferase
Procedure: Luminescence spectra of Compounds 19 and 20 were measured.

luciferase (firefly) [3] = molecular target: T1, luciferase (firefly); assay: HPLC analysis of luciferase reaction product with or without ATP (Example 6, FIG. 3); conditions: system added with ATP vs without ATP
Procedure: For 6-(4-aminophenethyl)-aminoluciferin (Compound 21), the enzymatic reaction was also performed in a system without ATP (all the other conditions were the same as Example 5), along with the aforementioned enzymatic reaction in Example 5. After these two enzymatic reactions, each enzymatic reaction mixture was collected and filtered by using a centrifugal separator to remove the enzyme. The solvent was evaporated by lyophilization to obtain a residue after the enzymatic reaction. A small amount of the residue was dissolved in purified water and methanol, then analyzed by HPLC. The results are shown in FIG. 3. • Analysis conditions • Elution solvent: A=H2O/0.1% trifluoroacetic acid, B=80% acetonitrile/20% • water/0.1% trifluoroacetic acid, A/B=80/20 to 20/80 (20 minutes) • Detection: UV-vis (400 nm) • Column: ODS-3, 4.6×250 mm • Flow rate: 1 mL/min

Compound: CNc1ccc2nc(C3=NC(C(=O)O)CS3)sc2c1 (stereo not shown) [Compound 10, N-methylaminoluciferin]
- relative intensity (luciferase (firefly) [1]): 66.5
- λmax(nm) (luciferase (firefly) [1]): 624 nm
- initial intensity (luciferase (firefly) [1]): 1360
- peak luminescence wavelength shift to longer wavelength side compared with luciferin (luciferase (firefly) [1]): 49 nm

Compound: CN(C)c1ccc2nc(C3=NC(C(=O)O)CS3)sc2c1 (stereo not shown) [Compound 11, N,N-dimethylaminoluciferin]
- relative intensity (luciferase (firefly) [1]): 44.1
- λmax(nm) (luciferase (firefly) [1]): 641 nm
- initial intensity (luciferase (firefly) [1]): 901
- peak luminescence wavelength shift to longer wavelength side compared with luciferin (luciferase (firefly) [1]): 66 nm

Compound: O=C(O)C1CSC(c2nc3ccc(NCc4ccccc4)cc3s2)=N1 (stereo not shown) [Compound 12, N-benzylaminoluciferin]
- relative intensity (luciferase (firefly) [1]): 5.2
- λmax(nm) (luciferase (firefly) [1]): 623 nm
- initial intensity (luciferase (firefly) [1]): 106
- peak luminescence wavelength shift to longer wavelength side compared with luciferin (luciferase (firefly) [1]): 48 nm

Compound: O=C(O)C1CSC(c2nc3ccc(NCCc4ccccc4)cc3s2)=N1 (stereo not shown) [Compound 13, N-phenethylaminoaminoluciferin]
- relative intensity (luciferase (firefly) [1]): 8.6
- λmax(nm) (luciferase (firefly) [1]): 611 nm
- initial intensity (luciferase (firefly) [1]; listed as N-phenethylaminoluciferin): 175
- peak luminescence wavelength shift to longer wavelength side compared with luciferin (luciferase (firefly) [1]): 36 nm

Compound: O=C(O)C1CSC(c2nc3ccc(NCCCc4ccccc4)cc3s2)=N1 (stereo not shown) [Compound 14, N-phenylpropylaminoluciferin]
- relative intensity (luciferase (firefly) [1]): 48.0
- λmax(nm) (luciferase (firefly) [1]): 611 nm
- initial intensity (luciferase (firefly) [1]): 980
- peak luminescence wavelength shift to longer wavelength side compared with luciferin (luciferase (firefly) [1]): 36 nm

Compound: O=C(Nc1ccc(CCNc2ccc3nc(C4=NC(C(=O)O)CS4)sc3c2)cc1)OCc1ccccc1 (stereo not shown) [Compound 19, 6-(4′-benzyloxycarbonylamidophenethyl)-aminoluciferin]
- luminescent property (luciferase (firefly) [2]): luminescence was observed
- luminescence peak (luciferase (firefly) [2]; HEPES pH 7.7): about 610 nm

Compound: Nc1ccc(CCNc2ccc3nc(C4=N[C@@H](C(=O)O)CS4)sc3c2)cc1 [Compound 21, 6-(4′-aminophenethyl)-aminoluciferin]
- luminescent property (luciferase (firefly) [2]): completely lost the luminescent property
- reaction as luciferase substrate (elution peak of compound after enzymatic reaction) (luciferase (firefly) [3]): reacted as a luciferase substrate

Compound: Nc1ccc2nc(C3=N[C@@H](C(=O)O)CS3)sc2c1 [aminoluciferin, reference compound]
- relative intensity (luciferase (firefly) [1]): 100.0
- λmax(nm) (luciferase (firefly) [1]): 609 nm
- initial intensity (luciferase (firefly) [1]): 2044
- peak luminescence wavelength shift to longer wavelength side compared with luciferin (luciferase (firefly) [1]): 34 nm
